Assay results: paper PMC2837349 (PLoS ONE, 2010)
Where a name gives a salt, the structure may show the parent alone.

Tested on: rhinocerase
Conditions: read-out: Km ^a; 0.1M Tris-HCl pH 7.4, 37°C, 7 min; 100 µg enzyme

Cc1cc(=O)oc2cc(NC(=O)[C@H](CCCNC(=N)N)NC(=O)c3ccccc3)ccc12 [Arg-AMC, Nα-benzoyl-L-arginine 7-amido-4-methylcoumarin.HCl]
Km: 80 ± 2.02 µM
